Measurements from article PMC10056636, “3-Amino-Substituted Analogues of Fusidic Acid as Membrane-Active Antibacterial Compounds” (Membranes, 2023).
≈ marks a conversion by molar mass, not a printed value. Read-outs that look alike come from different tables or passages of the source.

Columns and labels:
[1] = system: Staphylococcus aureus (ATCC 43300) (MRSA); assay: Antibacterial whole-cell growth inhibition (MIC, CO-ADD); type: cell-based; settings: for MIC: S. aureus (MRSA) ATCC 43300, inhibition ≥80%, two replicates (n = 2); for primary screening: antimicrobial activity: S. aureus (MRSA), primary screen at 32 μg/mL
Protocol: (§1) Antibacterial screening was carried out by the serial dilution method. All bacteria were cultured in the cation-adjusted Mueller Hinton broth (CAMHB) at 37 °C overnight. A sample of each culture was then diluted 40-fold in fresh broth and incubated at 37 °C for 1.5–3 h. The resultant mid-log phase cultures were diluted (CFU/mL measured by OD600) and then added into each well containing a test compound, giving a cell density of 5 × 10^5 CFU/mL and a total volume of 50 µL. All the plates were covered and incubated at 37 °C for 18 h without shaking.
(§2) Inhibition of bacterial growth was determined by measuring the absorbance at 600 nm (OD600) with a Tecan M1000 Pro monochromator plate reader. […]

[2] = in vitro; type: cell-based, human; settings: human, CC50
Protocol: (§3) HEK293 cells were counted manually in a Neubauer hemocytometer and then plated in 384-well plates containing the test compounds to give a density of 5000 cells per well in a final volume of 50 µL. DMEM supplemented with 10% FBS was used as the growth medium, and the cells were incubated together with the compounds for 20 h at 37 °C in 5% CO2.
(§4) The cytotoxicity (or cell viability) was measured by fluorescence, ex: 560/10 nm, em: 590/10 nm (F560/590), after addition of 5 µL of 25 µg/mL resazurin (2.3 µg/mL final concentration) and after incubation for further 3 h at 37 °C in 5% CO2. The fluorescence intensity was measured using a Tecan M1000 Pro monochromator plate reader with automatic gain control. The CC50 (50% cytotoxicity concentration) values were calculated by curve fitting of inhibition vs. log(concentration) using a sigmoidal dose–response function, with variable fitting values for bottom, top, and slope. In addition, the maximal percentage of cytotoxicity is reported as DMax, indicating any compounds with partial cytotoxicity. The curve fitting was implemented using Pipeline Pilot’s dose–response component. The results were similar to those obtained by other curve-fitting tools, such as GraphPad’s Prism and IDBS’s XlFit. Any value with > indicated samples with no activity (low DMax value) or samples with CC50 values above the maximum tested concentration (higher DMax value).
(§5) In addition, samples were flagged as partially cytotoxic if DMax ≥ 50%, even for CC50 > the maximum tested concentration.
(§6) Tamoxifen served as a positive cytotoxicity standard. Melittin was used as a positive hemolytic standard.

[3] = system: human embryonic kidney cell line HEK293 (ATCC CRL-1573); assay: in vitro; type: cell-based; settings: human, 20 h
Protocol: as §3, §4, §5, §6

[4] = Hemolysis assay; type: cell-based, human; settings: human, Dmax (maximal percentage of hemolysis)
Protocol: (§7) Human whole blood was washed three times with 3 volumes of 0.9% NaCl and then resuspended in the same medium to a concentration of 0.5 × 10^8 cells/mL, as determined by manual cell count in a Neubauer hemocytometer. The washed cells were then added to 384-well plates containing the test compounds to a final volume of 50 µL. After shaking on a plate shaker for 10 min, the plates were incubated for 1 h at 37 °C. After incubation, the plates were centrifuged at 1000× g for 10 min to pellet the cells and debris; 25 µL of the supernatant was then transferred to a polystyrene 384-well assay plate.
(§8) Hemolysis was monitored by measuring the supernatant absorbance at […] (OD405). The absorbance was measured using a Tecan M1000 Pro monochromator plate reader. HC10 and HC50 (10% and 50% hemolysis concentrations, respectively) were calculated by curve fitting of inhibition vs. log(concentration) using a sigmoidal dose–response function with variable fitting values for top, bottom, and slope. In addition, the maximal percentage of hemolysis is reported as DMax, indicating any compounds with partial hemolysis. The curve fitting was implemented using Pipeline Pilot’s dose–response component. […] Any value with > indicated sample with no activity (low DMax value) or samples with HC10 values above the maximum tested concentration (higher DMax value).
(§9) In addition, samples were flagged as partially hemolytic if DMax ≥ 50%, even for HC10 > the maximum tested concentration. […]

[5] = system: human red blood cells; assay: Hemolysis assay; type: cell-based; settings: human, 1 h
Protocol: as §7, §8, §9

[6] = Ion permeability and rupture of planar lipid bilayers
Protocol: (§10) Synthetic 1,2-diphytanoyl-sn-glycero-3-phosphocholine (DPhPC) and 1,2-diphytanoyl-sn-glycero-3-phospho-(1′-rac-glycerol) (DPhPG) were purchased from Avanti® Polar Lipids (Avanti Polar Lipids, Inc., Alabaster, AL, USA). A KCl solution (0.1 M) was buffered with 5 mM HEPES, pH 7.4. Bilayer lipid membranes were prepared from DPhPC or DPhPG using a monolayer-opposition technique on a 50 µm-diameter aperture in a 10 µm-thick Teflon film separating the cis- and trans-compartments of the Teflon chamber. Experiments were performed in chambers containing 0.1 M KCl, 5 mM Hepes-KOH, pH 7.4.
(§11) The test compounds (4, 20, 22) were added to the cis-chamber as 10 mg/mL solutions in ethanol (to mimic the physiologically relevant conditions) up to the final concentrations and the effects of the compounds on the ion permeability of the model lipid membranes were studied. Ag/AgCl electrodes with 1.5% agarose/2 M KCl bridges were used to apply the transmembrane voltage (V) and measure the transmembrane current (I). ‘Positive voltage’ refers to the case in which the cis-side compartment is positive with respect to the trans-side. All experiments were performed at room temperature.
(§12) The current was measured using an Axopatch 200B amplifier (Molecular Devices, LLC, Orlean, CA, USA) in voltage clamp mode. Data were digitized using a Digidata 1440A and analyzed using pClamp 10.0 (Molecular Devices, LLC, Orlean, CA, USA) and Origin 8.0 (OriginLab Corporation, Northampton, MA, USA). The data were acquired at a sampling frequency of 5 kHz using low-pass filtering at 200 Hz.
(§13) The threshold concentrations (Cbr) of the derivatives required to rupture the bilayers composed of DPhPC or DPhPG at a transmembrane voltage of 100 mV were determined. Cbr-values were averaged from 3 to 4 bilayers and presented as mean ± standard error (p ≤ 0.05).

[7] = Ion permeability, pore formation and rupture of planar lipid bilayers
Protocol: as §10, §11, §12, §13
Pore-forming ability of compound 22 was studied by applying transmembrane voltages in a range of 50–200 mV with 50 mV step and by increasing the derivative concentration in the bilayer bathing solution from 10 to 150 µg/mL.

[8] = Measurement of the membrane boundary potential (K+-nonactin conductance); settings: DPhPG, 0.1 M KCl, pH 7.4, 50 mV
Protocol: Measurement of the membrane boundary potential. Virtually solvent-free planar lipid bilayers were made of DPhPC or DPhPG as described above. After the membrane was completely formed and stabilized and its stability was assessed by applying voltages in a range from −200 to 200 mV with a 50 mV step for 5–10 min, stock solutions of nonactin A (7 μg/mL in ethanol) were added to the bathing solution (0.1 M KCl, 5 mM HEPES, pH 7.4) in both chamber compartments to obtain a final concentration ranging from 0.1 to 1 μM.
Test derivatives (4, 20, 22) as 10 mg/mL solutions in ethanol were added to both compartments in a concentration range from 5 µg/mL to Cbr in increments of 25 µg/mL.
The conductance of the bilayers was determined by measuring the membrane conductance (G) at a constant transmembrane voltage of 50 mV. In the subsequent calculations, the membrane conductance was assumed to be related to the membrane boundary potential (φb), the potential drop between the aqueous solution and the membrane hydrophobic core, by the Boltzmann distribution (1) Gm/Gm0=exp(eΔφb/kT) where Gm and Gm^0 are the steady-state membrane conductances induced by K^+-nonactin in the presence and absence of test compounds, respectively; e, k, and T have their usual meanings.
The changes in the membrane boundary potential for the defined experimental conditions were averaged from 4 bilayers and presented as mean ± standard deviation (p ≤ 0.05).

[9] = system: Acinetobacter baumannii (ATCC 19606); assay: Antibacterial whole-cell growth inhibition (MIC, CO-ADD); type: cell-based; settings: A. baumannii, two replicates per cell
Protocol: as §1, §2

[10] = system: Escherichia coli (ATCC 25922); assay: as above; type: cell-based; settings: E. coli, two replicates per cell
Protocol: as §1, §2

[11] = system: Pseudomonas aeruginosa (ATCC 27853); assay: as above; type: cell-based; settings: P. aeruginosa, two replicates per cell
Protocol: as §1, §2

[12] = system: Candida albicans (ATCC 90028); assay: Antifungal growth inhibition (MIC, CO-ADD); type: cell-based; settings: C. albicans, inhibition ≥80%, two replicates per cell
[13] = system: Cryptococcus neoformans (ATCC 208821); assay: Antifungal growth inhibition (MIC, CO-ADD); settings: inhibition ≥70%, two replicates per cell
Protocol: Antimicrobial, cytotoxicity, and hemolytic activity screening of the synthesized derivatives was carried out in the CO-ADD (The Community for Antimicrobial Drug Discovery) (http://www.co-add.org, accessed on 24 November 2020) and included analysis for antibacterial properties, cytotoxicity, and hemolytic activity.
The hit confirmation test included five bacteria, Escherichia coli (ATCC 25922), Klebsiella pneumoniae (ATCC 700603), Acinetobacter baumannii (ATCC 19606), Pseudomonas aeruginosa (ATCC 27853), and Staphylococcus aureus (ATCC 43300), and two fungi, Candida albicans (ATCC 90028) and Cryptococcus neoformans (ATCC 208821). […] The compounds were also screened for hemolysis of human red blood cells (human whole blood, strain ARCBS 5400 00150).
Samples were prepared in DMSO and water to a final testing concentration of 32 µg/mL or 20 µM (unless otherwise indicated in the data sheet) and serially diluted twofold up to 8 times. Each sample concentration was prepared in 384-well plates: non-binding surface plate (NBS; Corning 3640) for each bacterial/fungal strain, tissue-culture treated (TC-treated; Corning 3712/3764) black for mammalian cell types and polypropylene 384-well plates (PP; Corning 3657) for hemolysis assays. The final DMSO concentration was maintained to a maximum of 0.5%. All sample preparation procedures were performed using liquid-handling robots. All screening was performed as two replica (n = 2), with both replicas on different assay plates, but from single plating and performed in a single screening experiment (microbial incubation). In addition, two values are used as quality controls for individual plates: Z′-Factor [1 − (3* (sd(NegCtrl) + sd(PosCtrl))/(average(PosCtrl)-average(NegCtrl)))] and standard antibiotic controls at different concentrations (>MIC and <MIC).
Fungi strains were cultured for 3 days on yeast extract-peptone dextrose (YPD) agar at 30 °C. A yeast suspension of 1 × 10^6 to 5 × 10^6 CFU/mL (as determined by OD530) was prepared from five colonies. The suspension was subsequently diluted and added to each well containing a test compound, giving a final cell density of fungi suspension of 2.5 × 10^3 CFU/mL and a total volume of 50 µL. All plates were covered and incubated at 35 °C for 36 h without shaking.
The absorbance was measured using a Biotek Multiflo Synergy HTX plate reader. In both cases, the percentage of growth inhibition was calculated for each well, using the negative control (media only) and positive control (fungi without inhibitors) in the same plate. […] In addition, the maximal percentage of growth inhibition is reported as DMax, indicating any compounds with marginal activity.
Fluconazole was used as a positive fungal inhibitor standard for C. albicans and C. neoformans. […] The quality control (QC) of the assays was performed using Z′-factors calculated from the negative (media only) and positive controls (bacterial, fungal, or cell culture without inhibitor) and the standards.

[14] = Staphylococcus aureus, read-out: MIC

Compound	MIC [1]	primary screening: antimicrobial activity [1]	MIC [1, 14] [µg/mL]	CC50 at 20 h [2] [µg/mL]	CC50 [3]	hemolysis at 1 h [4] [%]	HC50 [5]	melting point [°C]	Dmax (maximal percentage of hemolysis) [5] [%]	also measured
COC(=O)/C(CCC=C(C)C)=C1\[C@@H](OC(C)=O)C[C@@]2(C)[C@@H]1C[C@@H](O)[C@@H]1[C@@]3(C)CC[C@H](NC(=O)c4cnccn4)[C@@H](C)C3CC[C@@]12C (stereo partly drawn) [Compound 4, Methyl (2Z)-2-{(3β,4α,8α,11α,14β,16β)-16-(acetyloxy)-11-hydroxy-4,8,10,14-tetramethyl-3-[(pyrazin-2-ylcarbonyl)amino]gonan-17-ylidene}-6-methylhept-5-enoate]	≤0.25 ≤0.25 µg/mL	showed antimicrobial activity	0.25 (≈ 0.393 µM)	24 (≈ 37.7 µM)	> 32 µg/mL	3.9	>32 >32 µg/mL	151 to 153	–	concentration up to which addition did not increase the ion permeability of the lipid bilayers ([6]; DPhPC uncharged membranes): ≤ 225 µg/mL; Cbr (threshold concentration required to rupture the bilayer) ([6]; DPhPC, 0.1 M KCl, pH 7.4, 100 mV): 225 ± 15 µg/mL; concentration up to which ionic permeability of lipid bilayers is not affected ([7]; DPhPG): up to 170 μg/mL; formation of ion-permeable pores ([7]; DPhPG bilayers): not able to form transient ion-permeable pores; Cbr (threshold concentration required to rupture the bilayer) ([7]; DPhPG, 0.1 M KCl, pH 7.4, 100 mV): 163 ± 11 µg/mL; −Δφb(max) (maximum decrease in the membrane boundary potential) [8]: 21 ± 5 mV
CC(=O)O[C@H]1C[C@@]2(C)[C@H](C[C@@H](O)[C@@H]3[C@@]4(C)CC[C@H](NC(=O)c5cnccn5)[C@@H](C)C4CC[C@@]32C)/C1=C(\CCC=C(C)C)C(=O)O (stereo partly drawn) [Compound 3, (2Z)-2-{(3β,4α,8α,11α,14β,16β)-16-(acetyloxy)-11-hydroxy-4,8,10,14-tetramethyl-3-[(pyrazin-2-ylcarbonyl)amino]gonan-17-ylidene}-6-methylhept-5-enoic acid]	≤0.25 ≤0.25 µg/mL	showed antimicrobial activity	0.25 (≈ 0.402 µM)	> 32	>32 >32 µg/mL	2.2	>32 >32 µg/mL	162 to 164	1.4	–
CC(=O)O[C@H]1C[C@@]2(C)[C@@H](C[C@@H](O)[C@H]3[C@@]4(C)CC[C@@H](O)[C@@H](C)[C@@H]4CC[C@@]32C)/C1=C(\CCC=C(C)C)C(=O)O [Fusidic acid]	≤0.25 ≤0.25 µg/mL	–	≤ 0.25	> 32	>32 >32 µg/mL	10	>32 >32 µg/mL	–	9.7	MIC [9]: >32 >32 µg/mL; MIC ([9]; Acinetobacter baumannii, ATCC19606, read-out: MIC): > 32 µg/mL; MIC [10]: >32 >32 µg/mL; MIC ([10]; Escherichia coli, ATCC25922, read-out: MIC): > 32 µg/mL; MIC [11]: >32 >32 µg/mL; MIC ([11]; Pseudomonas aeruginosa, ATCC27853, read-out: MIC): > 32 µg/mL; MIC [12]: >32 >32 µg/mL; MIC ([12]; Candida albicans, ATCC90028, read-out: MIC): > 32 µg/mL; MIC ([13]; C. neoformans): >32 >32 µg/mL; MIC ([13]; Cryptococcus neoformans, ATCC208821, C. neoformans): > 32 µg/mL
